Source: publication PMC12340723, “Validation of Hv1 channel functions in BV2 microglial cells using small molecule modulators” (Frontiers in Cellular Neuroscience, 2025)

How the values were obtained:
[1] = target: T1, Voltage-gated proton channel Hv1 (Mus musculus, UniProt Q3U2S8); assay: whole-cell patch clamp at +[…] mV in BV2 cells (activator); BCECF pH-recovery assay, effect abolished by Hv1 shRNA; assay type: cell-based
T1 construct: gene Hvcn1; endogenous Hv1 in BV2 microglial cells
T1 sequence (Q3U2S8 1-269): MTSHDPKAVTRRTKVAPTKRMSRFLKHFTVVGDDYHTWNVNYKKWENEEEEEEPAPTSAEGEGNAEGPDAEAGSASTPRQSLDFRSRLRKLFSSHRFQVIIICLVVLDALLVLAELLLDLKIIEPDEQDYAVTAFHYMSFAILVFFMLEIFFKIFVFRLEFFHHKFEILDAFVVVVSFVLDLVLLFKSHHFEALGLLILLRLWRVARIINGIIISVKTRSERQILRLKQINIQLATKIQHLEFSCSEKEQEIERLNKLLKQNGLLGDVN

[2] = target: T1, Voltage-gated proton channel Hv1; assay: whole-cell patch clamp at +[…] mV in BV2 cells; BCECF pH-recovery assay, effect abolished by Hv1 shRNA; assay type: cell-based

EC50 [1]	IC50 [2]	Compound
8.41 ± 1.9 µM	–	O=C(CC1Sc2ccccc2NC1=O)Nc1ccccc1Cl (centres unmarked) [S-023-0515]
–	2.6 ± 1.1 µM	O=C(CC1Sc2ccccc2NC1=O)Nc1ccc(Cl)cc1 (centres unmarked) [YHV98-4]
